Read-outs that look alike come from different tables or passages of the source.
Legend:
[1] = mice; cited from earlier work
[2] = system: cells; settings: cells pre-incubated with compound, then exposed to γ-radiation; cited from earlier work
[3] = system: thymocytes; assay: Cytoprotection of mouse thymocytes from dexamethasone-induced apoptosis (PI/DiOC6 flow cytometry); format: cell-based, C57Bl/6 mice; settings: Thymocyte
Experimental: Thymocytes were harvested from young C57Bl/6 mice and cultured at 37° C. in 5% CO2 in RPMI 1640 containing 10% FBS, 1% Penicillin/Streptomycin (Gibco BRL, Rockville, Md.). Thymocytes were plated at a density of 10^7 cells/mL and pre-incubated with 5-10 μM of test compounds, 1, 2, 4, and 11 (from 10 mM
[drawing 8] stock in DMSO) for 30 minutes before induction of apoptosis. Apoptosis was induced with 5 μM dexamethasone or by exposure to 6 Gy gamma radiation. After 6 hours, cell apoptosis was assayed by propidium iodide (PI) and 3,3′ dihexyloxacarbocyanine iodide (DiOC6) staining. The cells were removed from the plate and incubated for 30 minutes in medium with 40 nM DiOC6 and 5 μg/mL PI and then analyzed by flow cytometry in a FACS caliber (Beckton-Dickinson, San Jose, Calif.). Viable cells had high DiOC6 (FL-1) and low PI (FL-3), whereas apoptotic cells had low DiOC6 (FL-1) and […]. To evaluate the IC50s the thymocytes were pre-exposed to graded concentrations of selected compounds for 30 min and then apoptosis was induced with 5 μM dexamethasone. After 6 hours the cells were harvested and stained as above. The results are illustrated in FIGS. 1 and 2 IC50 Determination
The concentration (IC50) of each compound that inhibited dexamethasone-induced cell death by 50% was determined by nonlinear regression fitting of the data to a one-site model. Pseudo Hill slopes were determined by nonlinear regression fit of the data to a sigmoidal dose-response equation (variable slope): % viability=minimum %/viability+(maximum−minimum % viability)/[1+10(log IC50−X)^n], where X is the logarithm of inhibitor concentration, and n is the pseudo Hill slope and the maximum and minimum % viability were experimentally determined after dexamethasone exposure and drug treatment. IC50 values and 95% confidence intervals (CI) were derived from the sigmoid fits to the percent control transformed data shown using GraphPad Prism version 4.0b for Macintosh (GraphPad Software, San Diego, Calif.).

[4] = read-out: EC50, cytoprotective activity following in vitro dexamethasone treatment of mouse thymocytes
[5] = 5 μM dexamethasone, 30 min pre-incubation, 6 hours, 95% CI in parentheses, read-out: EC50, in vitro cytoprotection activity

| Compound | EC50 [3, 5] [µM] | other results |
| --- | --- | --- |
| Br.Cc1ccc(C(=O)Cn2c3c(sc2=N)CCCC3)cc1 [Compound 1, 2-(2-imino-4,5,6,7-tetrahydro-benzothiazol-3-yl)-1-p-tolyl-ethanone hydrobromide] | – | mortality after γ-radiation [1]: reduced mortality; apoptosis after γ-radiation [2]: decreased in apoptosis; EC50 [3, 4]: 4.4 µM |
| CON=C(Cn1c(=O)ccc2ccccc21)c1ccc(C)cc1 [Compound 6, 1-(2-Methoxyimino-2-p-tolyl-ethyl)-1H-quinolin-2-one] | > 10 | – |
| Cc1ccc(C(=O)Cn2c(=O)ccc3ccccc32)cc1 [Compound 7, 1-(2-Oxo-2-p-tolyl-ethyl)-1H-quinolin-2-one] | > 10 | – |
| Cc1ccc(C(=O)C[n+]2ccccc2)cc1 [Compound 9, 1-(2-Oxo-2-p-tolyl-ethyl)-pyridinium bromide] | > 10 | – |
| CON=C(Cn1c(=O)ccc2ccccc21)c1ccc(N2CCCC2)cc1 [Compound 12, 1-[2-Methoxyimino-2-(4-pyrrolidin-1-yl-phenyl)-ethyl]-1H-quinolin-2-one] | > 10 | – |

Continued, in another order:

| EC50 [3, 5] [µM] | Compound | other results |
| --- | --- | --- |
| 0.35 | CON=C(C[n+]1cccc2ccccc21)c1ccc(C)cc1 [Compound 4, 1-(2-Methoxyimino-2-p-tolyl-ethyl)-quinolinium bromide] | EC50 [3, 4]: 0.35 µM |
| > 10 | Cc1ccc(C(=O)C[n+]2cccc3ccccc32)cc1 [Compound 5, 1-(2-Oxo-2-p-tolyl-ethyl)-quinolinium bromide] | – |
| 5.1 | CON=C(C[n+]1ccccc1)c1ccc(C)cc1 [Compound 8, 1-(2-Methoxyimino-2-p-tolyl-ethyl)-pyridinium bromide] | – |
| 0.013 | CON=C(C[n+]1cccc2ccccc21)c1ccc(N2CCCC2)cc1 [Compound 11, 1-[2-Methoxyimino-2-(4-pyrrolidin-1-yl-phenyl)-ethyl]-quinolinium bromide] | – |
| 0.28 | CON=C(C[n+]1ccccc1)c1ccc(N2CCCC2)cc1 [Compound 13, 1-[2-Methoxyimino-2-(4-pyrrolidin-1-yl-phenyl)-ethyl]-pyridinium bromide] | – |

From patent US7816352B2, “Apoptosis inhibitors” (The Regents of The University of California, priority 2005, dated 2010)
